Read-outs that look alike come from different tables or passages of the source.
Columns and labels:
[1] = Pharmacokinetic study, oral capsule administration under fasted conditions in beagle dogs; format: in vivo; conditions: mean, male beagle dogs, equivalent metaxalone dosage of 21 mg/kg; for Cmax: plasma metaxalone by LC-MS/MS; for AUC / Tmax: plasma; for AUC: linear trapezoidal rule
Description: The study was designed to compare the pharmacokinetic profiles of the 1:0.5 metaxalone fumaric acid (prepared as described in Example 2.7) and 1:0.5 metaxalone succinic acid cocrystals (prepared as described in Example 4.7) with that of the crystalline metaxalone following oral administration under fasted conditions at 21 mg/kg dose level in beagle dogs. A crossover study was carried out using 5 male beagle dogs with a washout period of 5 days between each treatment. Prior to dosing, the dogs were fasted overnight, weighed and then this weight was used to load capsules with each test compound at an equivalent metaxalone dosage of 21 mg/kg. The capsules were orally administered to the dogs followed by about 10 mL of water. Food was provided 4 hours post-dose to all animals.
Blood samples were collected at pre-dose, 10, 20 and 30 minutes, and 1, 2, 3, 4, 6, 8, 12 and 24 hour post-dose (12 time points) following oral dose administration. Approximately 0.8 ml of whole blood was withdrawn from the cephalic vein and placed in labelled tubes containing K2 EDTA as anticoagulant ([…] of 200 mM K2 EDTA solution per mL of blood). Plasma was separated by centrifuging the whole blood at about 2500 g for 10 minutes at 4° C. Separated plasma was stored below −70° C. until analysis.
A fit for purpose LC-MS/MS method was used for the determination of the metaxalone concentrations in the plasma samples. Pharmacokinetic parameters from individual samples were calculated using the non-compartmental analysis tool of the WinNonlin® software (version 5.2). The area under the plasma concentration curve (AUC) was calculated using the linear trapezoidal rule. Peak plasma concentration (Cmax) and the time taken to reach the peak plasma concentration (Tmax) were the observed values.

[2] = cited from earlier work
[3] = presence of food at the time of drug administration compared to fasted conditions; cited from earlier work

Compound	Cmax ([1]; dog, read-out: Cmax) [µg/mL]	AUC ([1]; dog, read-out: AUC) [µg·h/mL]	Tmax ([1]; dog, read-out: Tmax) [h]	Solubility in 96% ethanol ([2]; 96% ethanol)	Solubility in chloroform ([2]; chloroform)	Solubility in methanol ([2]; methanol)	Solubility in water ([2]; water)	Increase of AUC(inf) by food [3] [%]	Increase of AUC(last) by food [3] [%]	Increase of C(max) by food [3] [%]	Tmax [1] [h]	Cmax [1] [µg/mL]	AUC [1] [µg·h/mL]
Cc1cc(C)cc(OCC2CNC(=O)O2)c1 (stereo not shown) [Metaxalone, 5-[(3,5-dimethylphenoxy)methyl]-2-oxazolidinone]	1.91	2.38	0.9	soluble	freely soluble	soluble	practically insoluble	115.4	123.5	177.5			
Cc1cc(C)cc(OCC2CNC(=O)O2)c1.Cc1cc(C)cc(OCC2CNC(=O)O2)c1.O=C(O)CCC(=O)O (stereo not shown) [1:0.5 Metaxalone Succinic Acid Cocrystal]											1.8	2.6298	4.13485
Cc1cc(C)cc(OCC2CNC(=O)O2)c1.Cc1cc(C)cc(OCC2CNC(=O)O2)c1.O=C(O)C=CC(=O)O (stereo not shown) [1:0.5 Metaxalone Fumaric Acid Cocrystal]											1.1	3.63539	5.20244
